Measurements from patent US10010525B2, “Methods of inducing anesthesia” (The Regents of the University of California, priority 2012, dated 2018).
Entries after “also recorded” stand apart in the source; their conditions may differ.

Key:
[1] = system: 3-transmembrane (TM3) and 4-transmembrane (TM4) receptors; details: grouped by calculated molar solubility in unbuffered water at 25° C.; cited from earlier work
[2] = biological target: T1, GABAA (α1β2γ2s) receptors (UniProt P14867+P18508+P63138); experiment: GABAA receptor two-electrode voltage clamp in oocytes at saturated drug concentration; type: cell-based, human α1, rat β2 and γ2s; details: for GABAA % Direct Effect: drug response without receptor agonist; for GABAA % Direct Effect / GABAA % Agonist Effect: percent of control agonist peak, mean ±SEM, 5-6 oocytes, saturated drug; for GABAA % Agonist Effect: drug with γ-aminobutyric acid; for GABAA Drug Response: drug+agonist versus control agonist peak; for GABAA receptor modulation (in words): saturating aqueous concentration
T1 construct: expressed in transfected cells; host or cells: Xenopus laevis oocytes (intranuclear plasmid injection, α1:β2:γ2 = 1:1:10)
T1 sequence (P14867 28-456): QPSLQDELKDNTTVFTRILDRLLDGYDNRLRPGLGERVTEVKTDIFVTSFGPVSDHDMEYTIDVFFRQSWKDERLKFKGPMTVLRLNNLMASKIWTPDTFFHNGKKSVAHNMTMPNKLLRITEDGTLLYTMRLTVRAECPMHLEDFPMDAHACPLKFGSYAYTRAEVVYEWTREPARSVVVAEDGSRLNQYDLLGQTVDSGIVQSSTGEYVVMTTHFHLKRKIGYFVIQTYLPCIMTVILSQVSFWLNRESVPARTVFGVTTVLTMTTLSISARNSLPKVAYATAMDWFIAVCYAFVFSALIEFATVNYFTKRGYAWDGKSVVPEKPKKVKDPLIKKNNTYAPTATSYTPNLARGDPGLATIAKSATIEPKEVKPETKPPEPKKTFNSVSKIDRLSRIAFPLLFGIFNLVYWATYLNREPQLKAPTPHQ
T1 sequence (P63138 25-474 limits assumed): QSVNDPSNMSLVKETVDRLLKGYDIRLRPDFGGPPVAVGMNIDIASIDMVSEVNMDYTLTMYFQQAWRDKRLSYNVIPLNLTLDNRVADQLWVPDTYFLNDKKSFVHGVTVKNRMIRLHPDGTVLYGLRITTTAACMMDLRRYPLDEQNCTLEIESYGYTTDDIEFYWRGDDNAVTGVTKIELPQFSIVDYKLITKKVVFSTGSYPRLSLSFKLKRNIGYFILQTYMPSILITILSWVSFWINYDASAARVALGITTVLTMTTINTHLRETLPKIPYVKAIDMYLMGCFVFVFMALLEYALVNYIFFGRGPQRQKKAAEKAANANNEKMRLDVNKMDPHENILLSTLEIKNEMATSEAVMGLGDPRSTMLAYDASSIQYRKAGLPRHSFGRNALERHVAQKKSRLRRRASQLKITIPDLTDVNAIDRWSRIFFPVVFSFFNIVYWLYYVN
T1 sequence (P18508 39-466): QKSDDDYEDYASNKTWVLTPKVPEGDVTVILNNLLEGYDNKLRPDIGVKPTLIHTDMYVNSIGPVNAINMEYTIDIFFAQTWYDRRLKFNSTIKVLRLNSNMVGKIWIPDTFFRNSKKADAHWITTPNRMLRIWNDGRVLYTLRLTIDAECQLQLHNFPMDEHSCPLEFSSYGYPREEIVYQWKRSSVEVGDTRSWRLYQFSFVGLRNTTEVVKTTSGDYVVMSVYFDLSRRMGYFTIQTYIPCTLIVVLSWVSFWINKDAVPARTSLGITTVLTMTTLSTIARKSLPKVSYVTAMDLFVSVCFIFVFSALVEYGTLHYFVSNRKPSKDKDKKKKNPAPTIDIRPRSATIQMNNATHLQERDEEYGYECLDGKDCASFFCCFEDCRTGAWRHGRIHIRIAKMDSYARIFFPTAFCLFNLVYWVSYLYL
Excerpt: (§1) GABAA (α1β2γ2s) or NMDA (NR1/NR2A) receptors were expressed in oocytes and studied using standard two-electrode voltage clamp techniques. Hydrocarbons from 14 different organic functional groups were studied at saturated concentrations, and compounds within each group differed only by the carbon number at the ω-position or within a saturated ring. An effect on GABAA or NMDA receptors was defined as a 10% or greater reversible current change from baseline that was statistically different from zero.
(§2) An ovary from tricaine-anesthetized Xenopus laevis frogs was surgically removed using a protocol approved by the Institutional Animal Care and Use Committee at the University of California, Davis. Following manual disruption of the ovarian lobule septae, the ovary was incubated in 0.2% Type I collagenase (Worthington Biochemical, Lakewood, N.J.) to defolliculate oocytes which were washed and stored in fresh and filtered modified Barth's solution composed of 88 mM NaCl, 1 mM KCl, 2.4 mM NaHCO3, 20 mM HEPES, 0.82 mM MgSO4, 0.33 mM Ca(NO3)2, 0.41 mM CaCl2, 5 mM sodium pyruvate, gentamycin, penicillin, streptomycin, and corrected to pH=7.4. All salts and antibiotics were A.C.S. grade (Fisher Scientific, Pittsburgh, Pa.).
(§3) Clones used were provided as a gift from Dr. R. A. Harris (University of Texas, Austin) and were sequenced and compared to references in the National Center for Biotechnology Information database to confirm the identity of each gene. GABAA receptors were expressed using clones for the human GABAA α1 and the rat GABAA β2 and γ2s subunits in pCIS-II vectors. […] In separate oocytes, glutamate receptors were expressed using rat NMDA NR1 clones in a pCDNA3 vector and rat NMDA NR2A clones in a Bluescript vector. RNA encoding each subunit was prepared using a commercial transcription kit (T7 mMessage mMachine, Ambion, Austin, Tex.) was mixed in a 1:1 ratio, and 1-10 ng of total RNA was injected into oocytes and studied 1-2 days later.
Oocytes were studied in a 250 μL linear-flow perfusion chamber with solutions administered by syringe pump at 1.5 ml/min with gastight glass syringes and Teflon tubing. Oocyte GABAA currents were studied using standard two-electrode voltage clamping techniques at a holding potential of […] using a 250 μL channel linear-flow perfusion chamber with solutions administered by syringe pump at 1.5 mL/min.
After FR perfusion for 5 min, oocytes were exposed to 30 sec FR-GABA followed by another 5 min FR washout; this was repeated until stable GABAA-elicited peaks were obtained. Next, FR containing a saturated solution of the study drug (Table 2)—or for gaseous study compounds a vapor pressure equal to 90% of barometric pressure with balance oxygen—was used to perfuse the oocyte chamber for 2 min followed by perfusion with a FR-GABA solution containing the identical drug concentration for 30 sec.
(§4) Modulating drug responses were calculated as the percent of the control (baseline) peak as follows: 100·ID/IB, where ID and IB were the peak currents measured during agonist+drug and agonist baseline perfusions, respectively. When present, direct receptor activation by a drug was similarly calculated as a percent of the agonist response. […] A lack of receptor response (cut-off) was defined as a<10% change from baseline current that was statistically indistinguishable from zero using a two-tailed Student t-test.

[3] = biological target: T2, NMDA (NR1/NR2A) receptors (Rattus norvegicus, UniProt P35439+Q00959); experiment: NMDA receptor two-electrode voltage clamp in oocytes at saturated drug concentration; type: cell-based; details: for NMDA % Direct Effect: drug response without receptor agonist; for NMDA % Direct Effect / NMDA % Agonist Effect: percent of control agonist peak, mean ±SEM, 5-6 oocytes, saturated drug; for NMDA % Agonist Effect: drug with glutamate and glycine; for NMDA Drug Response: drug+agonist versus control agonist peak; for NMDA receptor modulation (in words): saturating aqueous concentration
T2 construct: expressed in transfected cells; host or cells: Xenopus laevis oocytes (RNA injection, 1:1)
T2 sequence (Q00959 23-1464, other chains not shown): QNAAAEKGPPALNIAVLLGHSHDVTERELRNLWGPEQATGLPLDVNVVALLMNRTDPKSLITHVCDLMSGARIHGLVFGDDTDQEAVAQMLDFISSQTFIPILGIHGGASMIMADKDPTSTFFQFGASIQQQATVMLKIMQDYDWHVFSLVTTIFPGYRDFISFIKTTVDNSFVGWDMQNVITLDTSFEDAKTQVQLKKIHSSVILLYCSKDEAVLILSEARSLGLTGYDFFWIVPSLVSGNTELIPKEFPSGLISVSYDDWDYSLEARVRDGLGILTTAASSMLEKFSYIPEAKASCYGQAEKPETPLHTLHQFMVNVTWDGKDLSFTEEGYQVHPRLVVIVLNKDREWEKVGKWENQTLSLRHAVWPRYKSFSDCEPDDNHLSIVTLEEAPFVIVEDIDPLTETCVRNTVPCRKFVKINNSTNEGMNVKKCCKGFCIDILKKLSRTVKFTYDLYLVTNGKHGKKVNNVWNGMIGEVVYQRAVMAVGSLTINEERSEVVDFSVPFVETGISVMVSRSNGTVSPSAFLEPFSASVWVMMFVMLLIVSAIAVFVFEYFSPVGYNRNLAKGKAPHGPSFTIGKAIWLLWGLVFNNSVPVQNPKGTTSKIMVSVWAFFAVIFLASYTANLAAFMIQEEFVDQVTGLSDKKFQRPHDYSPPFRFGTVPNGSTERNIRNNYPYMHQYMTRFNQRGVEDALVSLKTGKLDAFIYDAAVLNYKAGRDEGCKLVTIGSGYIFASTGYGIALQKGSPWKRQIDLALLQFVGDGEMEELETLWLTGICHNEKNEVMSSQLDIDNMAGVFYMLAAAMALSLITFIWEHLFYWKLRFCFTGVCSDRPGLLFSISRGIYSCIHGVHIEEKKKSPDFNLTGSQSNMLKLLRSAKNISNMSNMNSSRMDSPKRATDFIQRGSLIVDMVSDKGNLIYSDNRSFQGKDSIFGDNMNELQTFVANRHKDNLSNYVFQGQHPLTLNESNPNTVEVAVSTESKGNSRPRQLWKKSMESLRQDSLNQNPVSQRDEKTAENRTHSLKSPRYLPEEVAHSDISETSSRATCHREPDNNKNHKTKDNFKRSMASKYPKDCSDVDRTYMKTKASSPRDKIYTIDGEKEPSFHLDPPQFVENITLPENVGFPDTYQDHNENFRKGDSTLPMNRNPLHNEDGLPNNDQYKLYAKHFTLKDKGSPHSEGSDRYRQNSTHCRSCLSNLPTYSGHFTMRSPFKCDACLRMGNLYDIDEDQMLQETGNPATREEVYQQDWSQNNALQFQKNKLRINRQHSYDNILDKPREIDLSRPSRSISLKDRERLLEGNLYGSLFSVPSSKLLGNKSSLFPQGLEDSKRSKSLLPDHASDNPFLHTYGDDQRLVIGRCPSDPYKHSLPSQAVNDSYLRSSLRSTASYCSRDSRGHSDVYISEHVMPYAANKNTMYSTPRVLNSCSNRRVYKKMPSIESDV
Excerpt: as §1, §2, §3
Briefly, baseline perfusion solutions were the same as for GABAA with the substitution of equimolar BaCl2 for calcium salts and the addition of 0.1 mM EGTA; this constituted barium frog Ringer's solution (BaFR). Agonist solutions for NMDA studies also contained 0.1 mM glutamate (E) and 0.01 mM glycine (G) to constitute a BaFREG solution.
The syringe pump and perfusion chamber apparatus as well as the clamp holding potential and baseline-agonist exposure protocols were identical to that described for the GABAA studies. The same test compounds, concentrations, and preparative methods were used in NMDA voltage clamp studies as in the GABAA voltage clamp studies (Table 2).
as §4

Row | Structure (SMILES) | ion channel modulation, TM3 versus TM4 receptors (FIG. 2) [1] | GABAA % Direct Effect [2] | GABAA % Agonist Effect [2] [%] | GABAA Drug Response [2] | NMDA % Direct Effect [3] | NMDA % Agonist Effect [3] [%] | NMDA Drug Response [3] | GABAA receptor modulation (in words) [2] | NMDA receptor modulation (in words) [3] | NMDA receptor modulation (in words) ([3]; listed as n-butane)
1 | FC1(F)C(F)(F)C(F)(Cl)C1(F)Cl (stereo not drawn) [1,2-dichlorohexafluorocyclobutane] | modulate 4-transmembrane receptors (TM4) or neither receptor type |  |  |  |  |  |  |  |  | 
2 | CCCCCCCCC(C)=O [2-decanone] |  | none | 476 ± 52 | + (potentiation (+) for drug+agonist responses greater than the control agonist peak) | none | 81 ± 1 |  |  |  | 
3 | CCCCCCCCCCC(C)=O [2-dodecanone] |  | none | 325 ± 30 | + (potentiation (+) for drug+agonist responses greater than the control agonist peak) | none | 97 ± 3 | 0 (no response (0) for drug+agonist responses that differ by <10% from the control agonist peak) |  |  | 
4 | CCCCCCCCCC(C)=O [2-undecanone] |  | none | 230 ± 16 | + (potentiation (+) for drug+agonist responses greater than the control agonist peak) | none | 98 ± 2 | 0 (no response (0) for drug+agonist responses that differ by <10% from the control agonist peak) |  |  | 
5 | CCCC [butane] |  | none | 623 ± 68 | + (potentiation (+) for drug+agonist responses greater than the control agonist peak) | none | 7 ± 2 |  | positively modulate | negatively modulates | almost completely inhibited NMDA receptor currents
6 | C1CCCCC1 [cyclohexane] |  | none | 421 ± 17 | + (potentiation (+) for drug+agonist responses greater than the control agonist peak) | none | 101 ± 2 | 0 (no response (0) for drug+agonist responses that differ by <10% from the control agonist peak) |  |  | 
7 | C1CCCC1 [cyclopentane] |  | 3 ± 2% | 196 ± 11 | + (potentiation (+) for drug+agonist responses greater than the control agonist peak) | none | 83 ± 2 |  |  |  | 
8 | C1CC1 [cyclopropane] | modulate both 3-transmembrane (TM3) and TM4 receptors |  |  |  |  |  |  |  |  | 
9 | CCCCCCCCCC=O [decanal] |  | none | 159 ± 5 | + (potentiation (+) for drug+agonist responses greater than the control agonist peak) | none | 97 ± 3 | 0 (no response (0) for drug+agonist responses that differ by <10% from the control agonist peak) |  |  | 
10 | FC(F)OC(F)C(F)(F)F (stereo not drawn) [desflurane] | modulate both 3-transmembrane (TM3) and TM4 receptors |  |  |  |  |  |  |  |  | 
11 | CN1C(=O)CN=C(c2ccccc2)c2cc(Cl)ccc21 [diazepam] | modulate 4-transmembrane receptors (TM4) or neither receptor type |  |  |  |  |  |  |  |  | 
12 | CCCCCCOCCCCCC [dihexylether] |  | none | 113 ± 1 | + (potentiation (+) for drug+agonist responses greater than the control agonist peak) | none | 112 ± 4 | 0 (no response (0) for drug+agonist responses that differ by <10% from the control agonist peak) |  |  | 
13 | CCCCCOCCCCC [dipentylether] |  | none | 211 ± 9 | + (potentiation (+) for drug+agonist responses greater than the control agonist peak) | none | 97 ± 2 | 0 (no response (0) for drug+agonist responses that differ by <10% from the control agonist peak) |  |  | 
14 | CCCCCCCCCC(=O)OCC [ethyl decanoate] |  | none | 137 ± 2 | + (potentiation (+) for drug+agonist responses greater than the control agonist peak) | none | 98 ± 1 | 0 (no response (0) for drug+agonist responses that differ by <10% from the control agonist peak) |  |  | 
15 | CCCCCCC(=O)OCC [ethyl heptanoate] |  | none | 370 ± 34 | + (potentiation (+) for drug+agonist responses greater than the control agonist peak) | none | 78 ± 3 |  |  |  | 
16 | CCCCCCCC(=O)OCC [ethyl octanoate] |  | none | 285 ± 18 | + (potentiation (+) for drug+agonist responses greater than the control agonist peak) | none | 90 ± 1 |  |  |  | 
17 | CCCCCC [hexane] |  | none | 129 ± 5 | + (potentiation (+) for drug+agonist responses greater than the control agonist peak) | none | 100 ± 1 | 0 (no response (0) for drug+agonist responses that differ by <10% from the control agonist peak) |  |  | 
18 | CCCCCCCCC=O [nonanal] |  | none | 219 ± 29 | + (potentiation (+) for drug+agonist responses greater than the control agonist peak) | none | 104 ± 2 | 0 (no response (0) for drug+agonist responses that differ by <10% from the control agonist peak) |  |  | 
19 | CCCCCCCC=O [octanal] |  | 6 ± 3% | 357 ± 20 | + (potentiation (+) for drug+agonist responses greater than the control agonist peak) | none | 71 ± 3 |  |  |  | 
20 | CCCCC [pentane] |  | none | 321 ± 10 | + (potentiation (+) for drug+agonist responses greater than the control agonist peak) | none | 94 ± 3 | 0 (no response (0) for drug+agonist responses that differ by <10% from the control agonist peak) | positively modulate | does not modulate NMDA receptors; also recorded: no effect | 
21 | CCCCCCCCCCC=O [undecanal] |  | none | 299 ± 29 | + (potentiation (+) for drug+agonist responses greater than the control agonist peak) | none | 97 ± 8 | 0 (no response (0) for drug+agonist responses that differ by <10% from the control agonist peak) |  |  | 
